Experimental data from the supplement of paper PMC11061612.

How the values were obtained:
[1] = compound: CN(CC[C@H](CSC1=CC=CC=C1)NC2=C(C=C(C=C2)S(=O)(=O)NC(=O)C3=CC=C(C=C3)N4CCC(CC4)[C@H](C5=CC=CC=C5C6=CC=C(C=C6)Cl)O)S(=O)(=O)C(F)(F)F)CCO [AZD4320]; settings: max 1 µM
Method in brief: (§1)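 Cancer cell lines were seeded into 1536-well plates in 7.5 μl medium (DMEM/F12 or RPMI, 10% FBS), held 24 hours at 37°C and 5% CO2, and dosed for 72 hours with final DMSO typically 0.2%. Luminescence from CellTiter-Glo 2.0, scaled between blank-well and DMSO-well means, served as viability. The single-agent IC50 was obtained from dose-response fits with a non-linear mixed effects model, each fit being a two-parameter logistic curve.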

[2] = compound: Cn1cnc2c(F)c(Nc3ccc(Br)cc3Cl)c(C(=O)NOCCO)cc21 [Selumetinib]; settings: max 10 µM
Method in brief: as §1

[3] = compound: COc1cccc(OCCCN)c1-c1cc(Nc2cnc(C#N)cn2)n[nH]1 [Prexasertib]; settings: max 1 µM
Method in brief: as §1

[4] = compound: COc1cc([C@@H]2c3cc4c(cc3[C@@H](O[C@@H]3O[C@@H]5CO[C@@H](C)O[C@H]5[C@H](O)[C@H]3O)[C@H]3COC(=O)[C@H]23)OCO4)cc(OC)c1O [Etoposide]; settings: max 10 µM
Method in brief: as §1

[5] = compound: CN(C)CCCOc1ccc(-c2ccc3ncc4c(c3c2)n(C2CCOCC2)c(=O)n4C)cn1 [AZD0156]
Method in brief: as §1

[6] = compound: C[C@@H]1COCCN1C2=NC(=NC(=C2)C3(CC3)[S@](=N)(=O)C)C4=C5C=CNC5=NC=C4 [AZD6738]; settings: max 10 µM
Method in brief: as §1

[7] = compound: NC1(c2ccc(-c3nc4ccn5c(=O)[nH]nc5c4cc3-c3ccccc3)cc2)CCC1 [MK-2206]; settings: max 10 µM
Method in brief: as §1

[8] = compound: Cc1nc(-c2cn3c(n2)-c2ccc(-c4cnn(C(C)(C)C(N)=O)c4)cc2OCC3)n(C(C)C)n1 [Taselisib]; settings: max 10 µM
Method in brief: as §1

[9] = compound: C=CCn1c(=O)c2cnc(Nc3ccc(N4CCN(C)CC4)cc3)nc2n1-c1cccc(C(C)(C)O)n1 [AZD1775]
Method in brief: as §1

[10] = compound: CC(=O)c1c(C)c2cnc(Nc3ccc(N4CCNCC4)cn3)nc2n(C2CCCC2)c1=O [Palbociclib]; settings: max 10 µM
Method in brief: as §1

[11] = compound: C[C@@H](Nc1cc(F)cc(F)c1)c1cc(C(=O)N(C)C)cc2c(=O)cc(N3CCOCC3)oc12 [AZD8186]; settings: max 10 µM
Method in brief: as §1

[12] = compound: Cc1c2c(nn1C)CSCc1cc(n(C)n1)CSc1cc(c3ccccc3c1)OCCCc1c(C(=O)O)n(C)c3c-2c(Cl)ccc13 [AZD5991]; settings: max 1 µM
Method in brief: as §1

[13] = compound: COc1cccc2c1C(=O)c1c(O)c3c(c(O)c1C2=O)C[C@@](O)(C(=O)CO)C[C@@H]3O[C@H]1C[C@H](N)[C@H](O)[C@H](C)O1 [Doxorubicin]; settings: max 1 µM
Method in brief: as §1

[14] = compound: CCc1c2c(nc3ccc(O)cc13)-c1cc3c(c(=O)n1C2)COC(=O)[C@]3(O)CC [SN-38]; settings: max 0.3 µM
Method in brief: as §1

[15] = compound: CC(=O)Nc1cccc(-n2c(=O)n(C3CC3)c(=O)c3c(Nc4ccc(I)cc4F)n(C)c(=O)c(C)c32)c1 [Trametinib]; settings: max 1 µM
Method in brief: as §1

[16] = compound: COc1cc2ncnc(Nc3ccc(F)c(Cl)c3)c2cc1OCCCN1CCOCC1 [Gefitinib]; settings: max 10 µM
Method in brief: as §1

[17] = compound: Cc1cc2ncnn2cc1Nc1ncc2c(n1)n(C1CCOCC1)c(=O)n2C [AZD7648]; settings: max 10 µM
Method in brief: as §1

[18] = compound: N#Cc1cnc(Nc2cc(NC[C@H]3CNCCO3)c(C(F)(F)F)cn2)cn1 [SRA737]; settings: max 10 µM
Method in brief: as §1

[19] = compound: CC1=CN2[C@@H](C1)C=NC3=CC(=C(C=C3C2=O)OC)OCCCCCOC4=C(C=C5C(=C4)N=C[C@@H]6CC(=CN6C5=O)C)OC [SG3199]; settings: max 0.001 µM
Method in brief: as §1

[20] = compound: C[C@@H](c1ccc2nccn2c1)n1nnc2ncc(-c3cnn(C)c3)nc21 [Savolitinib]; settings: max 1 µM
Method in brief: as §1

[21] = compound: O=C(c1cc(Cc2n[nH]c(=O)c3ccccc23)ccc1F)N1CCN(C(=O)C2CC2)CC1 [Olaparib]; settings: max 10 µM
Method in brief: as §1

[22] = compound: CC(C)n1c(=O)n(C)c2cnc3cc(F)c(-c4ccc(OCCCN5CCCCC5)nc4)cc3c21 [AZD1390]; settings: max 0.3 µM
Method in brief: as §1

[23] = compound: CC1(C)CCC(CN2CCN(c3ccc(C(=O)NS(=O)(=O)c4ccc(NCC5CCOCC5)c([N+](=O)[O-])c4)c(Oc4cnc5[nH]ccc5c4)c3)CC2)=C(c2ccc(Cl)cc2)C1 [Venetoclax]; settings: max 1 µM
Method in brief: as §1

[24] = compound: C1CC(C1)(C(=O)[O-])C(=O)[O-].N.N.[Pt+2] [Carboplatin]; settings: max 10 µM
Method in brief: as §1

[25] = compound: COc1cc(Nc2ncc3c(n2)-c2ccc(Cl)cc2C(c2c(F)cccc2OC)=NC3)ccc1C(=O)O [Alisertib]; settings: max 10 µM
Method in brief: as §1

[26] = compound: O=c1[nH]cc(F)c(=O)[nH]1 [5-Fluorouracil]; settings: max 20 µM
Method in brief: as §1

[27] = compound: CS(=O)(=O)CCNCc1ccc(-c2ccc3ncnc(Nc4ccc(OCc5cccc(F)c5)c(Cl)c4)c3c2)o1 [Lapatinib]; settings: max 10 µM
Method in brief: as §1

[28] = compound: CC(=O)O[C@H]1C(=O)[C@@]2(C)[C@H]([C@H](OC(=O)c3ccccc3)[C@]3(O)C[C@H](OC(=O)[C@H](O)[C@@H](NC(=O)c4ccccc4)c4ccccc4)C(C)=C1C3(C)C)[C@]1(OC(C)=O)CO[C@@H]1C[C@@H]2O [Paclitaxel]; settings: max 3 µM
Method in brief: as §1

[29] = compound: CC1=C(C(=CC=C1)Cl)NC(=O)C2=CN=C(S2)NC3=CC(=NC(=N3)C)N4CCN(CC4)CCO [Dasatinib]; settings: max 2 µM
Method in brief: as §1

[30] = compound: O=C(Nc1ccc2[nH]nc(-c3ccncc3)c2c1)[C@@H]1CCN(CC(=O)N2CCN(c3ccc(-c4ncccn4)cc3)CC2)C1; settings: max 5 µM
Method in brief: as §1

[31] = compound: CCN(CCO)CCCOc1ccc2c(Nc3cc(CC(=O)Nc4cccc(F)c4)[nH]n3)ncnc2c1 [AZD2811]; settings: max 1 µM
Method in brief: as §1

[32] = compound: C[C@@H](Oc1cc(-c2cnn(C3CCNCC3)c2)cnc1N)c1c(Cl)ccc(F)c1Cl [Crizotinib]; settings: max 10 µM
Method in brief: as §1

[33] = compound: COc1nnc2ccc(N3CCC(c4ccc(OCCN5CCN(C)C(=O)[C@H]5C)cc4)CC3)nn12 [AZD5153]; settings: max 1 µM
Method in brief: as §1

[34] = compound: C1CN(CCC1(C(=O)N[C@@H](CCO)C2=CC=C(C=C2)Cl)N)C3=NC=NC4=C3C=CN4 [AZD5363]; settings: max 10 µM
Method in brief: as §1

[35] = compound: Nc1ccn([C@@H]2O[C@H](CO)[C@@H](O)C2(F)F)c(=O)n1 [Gemcitabine]; settings: max 0.3 µM
Method in brief: as §1

Row | Cell Line | IC50, cell viability 72 h [1] [nM] | IC50, cell viability 72 h [2] [nM] | IC50, cell viability 72 h [3] [nM] | IC50, cell viability 72 h [4] [nM] | IC50, cell viability 72 h ([5]; max 3 µM) [nM] | IC50, cell viability 72 h [6] [nM] | IC50, cell viability 72 h [7] [nM] | IC50, cell viability 72 h [8] [nM] | IC50, cell viability 72 h ([9]; max 3 µM) [nM] | IC50, cell viability 72 h [10] [nM] | IC50, cell viability 72 h [11] [nM] | IC50, cell viability 72 h [12] [nM] | IC50, cell viability 72 h [13] [nM] | IC50, cell viability 72 h [14] [nM] | IC50, cell viability 72 h [15] [nM] | IC50, cell viability 72 h [16] [nM] | IC50, cell viability 72 h [17] [nM] | IC50, cell viability 72 h [18] [nM] | IC50, cell viability 72 h [19] [nM] | IC50, cell viability 72 h [20] [nM] | IC50, cell viability 72 h [21] [nM] | IC50, cell viability 72 h [22] [nM] | IC50, cell viability 72 h [23] [nM] | IC50, cell viability 72 h [24] [nM] | IC50, cell viability 72 h [25] [nM] | IC50, cell viability 72 h [26] [nM] | IC50, cell viability 72 h [27] [nM] | IC50, cell viability 72 h [28] [nM] | IC50, cell viability 72 h [29] [nM] | IC50, cell viability 72 h [30] [nM] | IC50, cell viability 72 h [31] [nM] | IC50, cell viability 72 h [32] [nM] | IC50, cell viability 72 h [33] [nM] | IC50, cell viability 72 h [34] [nM] | IC50, cell viability 72 h [35] [nM] | IC50, cell viability 72 h ([5]; max 1 µM) [nM] | IC50, cell viability 72 h ([9]; max 1 µM) [nM]
1 | 22RV1 (Prostate Carcinoma) | > 1000 | > 10000 | > 1000 | > 10000 | > 3000 | > 10000 | 6050 | 1860 | > 3000 | > 10000 | > 10000 | > 1000 | 426 | 28.9 | > 1000 | > 10000 | > 10000 | > 10000 | > 1 | > 1000 | > 10000 | > 300 | > 1000 | > 10000 | > 10000 | > 20000 | > 10000 | 50.6 | > 2000 | > 5000 | > 1000 | > 10000 | > 1000 | > 10000 | 101 |  | 
2 | 769-P (Kidney Carcinoma) | > 1000 | > 10000 | 40.6 | > 10000 | > 3000 | 1500 | > 10000 | > 10000 | 874 | 2870 | > 10000 | > 1000 | 816 | 159 | > 1000 | 8480 | > 10000 | 1540 | > 1 | > 1000 | > 10000 | > 300 | > 1000 | > 10000 | > 10000 | 12400 | 5240 | 109 | 253 | > 5000 | > 1000 | 4590 | 168 | > 10000 | 24.3 |  | 
3 | A2780 (Ovarian Carcinoma) | > 1000 | 3530 | 334 | 582 | > 3000 | 3650 | 1610 | 117 | 813 | 1160 | 1380 | 964 | 48.3 | 11.3 | 39.1 | > 10000 | 9290 | > 10000 | > 1 | > 1000 | 9950 | > 300 | > 1000 | > 10000 | 386 | 9030 | > 10000 | 4.38 | > 2000 | 243 | 370 | 2190 | 73.7 | 1830 | 8.45 |  | 
4 | KP-N-YN (Neuroblastoma) | 49.2 | > 10000 | 5.36 | > 10000 |  | 751 | > 10000 | 5580 |  | > 10000 | > 10000 | > 1000 | 749 | 35 | > 1000 | > 10000 | > 10000 | 751 | > 1 | > 1000 | > 10000 | > 300 | 344 | > 10000 | 1090 | > 20000 | > 10000 | 110 | > 2000 | > 5000 | 402 | > 10000 | > 1000 | > 10000 |  | > 1000 | 307
